Common to all, as to experiment: NCI-60 cell line screen, 48 h
The subject of assay [1] is HCT-15 colon.
In assay [2] the test system is OVCAR-3 ovarian.
Assay [3] concerns MDA-MB-435.
In assay [4] the test system is TK-10 renal.
Assay [5] concerns K-562 leukemia.
In assay [6] the test system is SF-295 CNS.
The test system of assay [7] is SNB-19 CNS.
Assay [8] concerns MALME-3M melanoma.
Assay [9] deals with NCI-H522 lung.
For assay [10], the system named is IGROV1 ovarian.

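1) Cells in 96-well plates. 2) Compound, 48 h, 5 concentrations. 3) Linear interpolation between surrounding doses. 4) Unreached endpoint = highest concentration. The concentration for full growth arrest is given as TGI.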

On to `N#Cc1c(-c2ccccc2)cc(Nc2ccc(Cl)cc2)n2c1nc1ccccc12`, for which the TGI in assay [1] is greater than 88 µM; in [2], 11 µM; in [3] it was greater than 100 µM; in assay [4], greater than 100 µM; in [5], 8.21 µM; in assay [6] it was greater than 33.3 µM. The TGI in [7] is greater than 100 µM; in assay [8], greater than 100 µM; in [9], 11.6 µM; in assay [10] it was greater than 100 µM.

In the case of `CN(C)N=Nc1ccc2[nH]c(=O)[nH]c2c1`, the TGI in assay [1], in assay [2], in [3], in assay [4], in assay [5] and in assay [6] was greater than 100 µM each time. Moreover, the TGI in assay [7], in assay [8], in assay [9] and in assay [10] was greater than 100 µM throughout.

Regarding `C[n+]1cn(-c2nc3ccccc3nc2[N-]S(=O)(=O)c2ccccc2)c2ccccc21`, the TGI in [1], in [2], in assay [3], in [4], in assay [5] and in [6] was greater than 100 µM in each case. For the same molecule, the TGI in [7] is greater than 100 µM; in [8], greater than 100 µM; in assay [9] it was 5.27 µM; in assay [10], greater than 100 µM.

As for `O=c1c2c3c(sc2nc2n1N=CN(c1ccc(F)cc1)C2)CCCC3`, the TGI in assay [1], in [2], in assay [3], in assay [4], in assay [5] and in assay [6] was greater than 100 µM each time. Also, the TGI in assay [7], in assay [8], in assay [9] and in [10] was greater than 100 µM in each case.

As to `Nc1c2cc3ccc2nc2ccc(cc12)OCCOCCOCCOCCOCCOCCO3`, the TGI in [1], in assay [2], in assay [3], in assay [4], in assay [5] and in assay [6] was greater than 10 µM each time. Besides, the TGI in assay [7], in assay [8], in assay [9] and in [10] was greater than 10 µM in each case.

For the molecule `C=C(C)C(=O)OC1C[C@H](COC(C)=O)C2CC=C(CO)C2C2OC(=O)C(=C)[C@H]12` (stereo not given in full), the TGI in assay [1] is greater than 100 µM; in [2], greater than 100 µM; in [3] it was greater than 100 µM; in assay [4], greater than 100 µM; in assay [5], 54.4 µM; in [6], greater than 100 µM. The TGI is greater than 100 µM in assay [7], 44.3 µM in assay [8], 33.8 µM in assay [9] and greater than 100 µM in [10].

Take `CC1(C)OC2OC(COC(=O)c3ccc(C#N)cc3)C3OC(C)(C)OC3C2O1` (stereo not given): the TGI in assay [1], in [2], in assay [3], in assay [4], in assay [5] and in assay [6] was greater than 75 µM throughout. In addition, the TGI in assay [7], in assay [8], in [9] and in [10] was greater than 75 µM throughout.

On to `CCNC(=S)NNC(=O)CSc1nc2ccc(I)cc2c(=O)n1Cc1ccccc1`, for which the TGI in [1], in assay [2], in assay [3], in assay [4], in assay [5] and in assay [6] was greater than 100 µM throughout. Besides, the TGI in [7] was greater than 100 µM; in assay [8], greater than 67.8 µM; in assay [9], greater than 100 µM; in assay [10], greater than 100 µM.

With `CCN(CC)CCN1C(=O)C(=O)N(c2cccc3ccccc23)C1=O`, the TGI in assay [1], in assay [2], in [3], in assay [4], in assay [5] and in [6] was greater than 10 µM each time. Also, the TGI in assay [7], in assay [8], in [9] and in assay [10] was greater than 10 µM throughout.

In the case of `COc1ccc(/C=C/C(=O)Oc2ccccc2OC)cc1`, the TGI was 37 µM in [1]; greater than 100 µM in assay [2]; greater than 80.5 µM in [3]; greater than 100 µM in [4]; greater than 100 µM in assay [5]; 10.7 µM in assay [6]. The TGI in assay [7] is greater than 100 µM; in assay [8], greater than 100 µM; in assay [9] it was greater than 72 µM; in assay [10], greater than 51.2 µM.

Regarding `CCOc1cc(-c2nc3cc(F)ccc3s2)ccc1O`, the TGI in assay [1] is 29 µM; in assay [2], 35 µM; in [3], 33.8 µM; in assay [4] it was 34 µM; in [5] it was 25.9 µM; in [6], 35.2 µM. The TGI in assay [7] is 30.7 µM; in assay [8], 29.8 µM; in assay [9], 24.2 µM; in assay [10], 26 µM.

The values are drawn from PubChem BioAssay (NCI).
